Measurements as given in PubChem BioAssay (NCI).
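Cultured in 96-well plates, cells were exposed to test compound for 48 hours across five concentrations. TGI is the concentration that stops growth completely.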

Legend:
Assay in all cases: NCI tumour cell line growth inhibition, 48 h
[1] = test system: 786-0 renal
[2] = test system: IGROV1 ovarian
[3] = test system: NCI-H460 lung
[4] = test system: SF-539 CNS
[5] = test system: HT29 colon
[6] = test system: DMS 273 small cell lung
[7] = test system: NCI-H522 lung
[8] = test system: HOP-92 NSCLC
[9] = test system: OVCAR-4 ovarian
[10] = test system: SF-295 CNS
[11] = test system: KM20L2 colon
[12] = test system: HOP-62 NSCLC
[13] = test system: XF 498 CNS
[14] = test system: SNB-19 CNS
[15] = test system: M19-MEL melanoma
[16] = test system: HL-60(TB) leukemia
[17] = test system: RXF 393 renal
[18] = test system: CAKI-1 renal
[19] = test system: TK-10 renal
[20] = test system: SN12C renal
[21] = test system: NCI-H226 lung
[22] = test system: COLO 205 colon
[23] = test system: SF-268 CNS
[24] = test system: UO-31 renal
[25] = test system: OVCAR-8 ovarian
[26] = test system: K-562 leukemia
[27] = test system: ACHN renal
[28] = test system: DLD-1 colon
[29] = test system: SR leukemia
[30] = test system: UACC-62 melanoma
[31] = test system: LXFL 529 NSCLC
[32] = test system: UACC-257 melanoma
[33] = test system: A498 renal
[34] = test system: LOX IMVI melanoma
[35] = test system: SK-MEL-5 melanoma
[36] = test system: OVCAR-5 ovarian
[37] = test system: EKVX NSCLC
[38] = test system: A549 NSCLC
[39] = test system: SK-MEL-28 melanoma
[40] = test system: MALME-3M melanoma
[41] = test system: SK-OV-3 ovarian
[42] = test system: KM12 colon
[43] = test system: DMS 114 small cell lung
[44] = test system: MCF7 breast
[45] = test system: SW-620 colon
[46] = test system: OVCAR-3 ovarian
[47] = test system: RPMI-8226 leukemia
[48] = test system: T-47D breast
[49] = test system: MDA-MB-231 breast
[50] = test system: HCC-2998 colon
[51] = test system: NCI-H23 lung
[52] = test system: U251 CNS
[53] = test system: HCT-116 colon
[54] = test system: MDA-N
[55] = test system: SNB-75 CNS
[56] = test system: PC-3 prostate
[57] = test system: MDA-MB-435
[58] = test system: MOLT-4 leukemia
[59] = test system: HCT-15 colon
[60] = test system: NCI/ADR-RES ovarian
[61] = test system: HS 578T breast
[62] = test system: BT-549 breast
[63] = test system: DU-145 prostate

`CCN(CC)c1c(C(=O)/C=C/c2ccccc2)c(-c2ccccc2)nn(C)c1=O` was tested, and the TGI [1] was over 100 µM, the TGI [2] was over 100 µM and the TGI [3] was over 100 µM. It also gave a TGI [4] of over 100 µM, a TGI [5] of over 100 µM and a TGI [6] of over 100 µM. It also gave a TGI [7] of over 100 µM, a TGI [8] of over 100 µM and a TGI [9] of over 100 µM. It also gave a TGI [10] of over 100 µM, a TGI [11] of over 100 µM and a TGI [12] of over 100 µM. It also gave a TGI [13] of over 100 µM, a TGI [14] of over 100 µM and a TGI [15] of over 100 µM. For the same compound, the TGI [16] was over 100 µM, the TGI [17] was over 100 µM and the TGI [18] was over 100 µM. For the same compound, the TGI [19] was over 100 µM, the TGI [20] was over 100 µM and the TGI [21] was over 100 µM. For the same compound, the TGI [22] was over 100 µM, the TGI [23] was over 100 µM and the TGI [24] was over 100 µM. It also gave a TGI [25] of over 100 µM, a TGI [26] of over 100 µM and a TGI [27] of over 100 µM. The TGI [28] was over 100 µM, the TGI [29] was over 100 µM and the TGI [30] was over 100 µM. For the same compound, the TGI [31] was over 100 µM, the TGI [32] was over 100 µM and the TGI [33] was over 100 µM. The TGI [34] was 35.9 µM, the TGI [35] was over 100 µM and the TGI [36] was over 100 µM. The TGI [37] was over 100 µM, the TGI [38] was over 100 µM and the TGI [39] was over 100 µM. For the same compound, the TGI [40] was over 100 µM, the TGI [41] was over 100 µM and the TGI [42] was over 100 µM. It also gave a TGI [43] of over 100 µM.
For `CC(C)=CCOC(=O)C(C)=[N+]=[N-]`, the TGI [44] was over 100 µM, the TGI [45] was over 100 µM and the TGI [1] was over 100 µM. It also gave a TGI [2] of over 100 µM, a TGI [46] of over 100 µM and a TGI [3] of over 100 µM. It also gave a TGI [47] of over 100 µM, a TGI [5] of over 100 µM and a TGI [48] of over 100 µM. For the same compound, the TGI [7] was over 100 µM, the TGI [9] was over 100 µM and the TGI [10] was over 100 µM. The TGI [12] was over 100 µM, the TGI [14] was over 100 µM and the TGI [49] was over 100 µM. It also gave a TGI [50] of over 100 µM, a TGI [51] of over 100 µM and a TGI [52] of over 100 µM. It also gave a TGI [16] of over 100 µM, a TGI [18] of over 100 µM and a TGI [19] of over 100 µM. For the same compound, the TGI [20] was over 100 µM, the TGI [53] was over 100 µM and the TGI [21] was over 100 µM. It also gave a TGI [22] of over 100 µM, a TGI [54] of over 100 µM and a TGI [55] of over 100 µM. For the same compound, the TGI [23] was over 100 µM, the TGI [24] was over 100 µM and the TGI [25] was over 100 µM. For the same compound, the TGI [56] was over 100 µM, the TGI [26] was over 100 µM and the TGI [27] was over 100 µM. It also gave a TGI [29] of over 100 µM, a TGI [57] of over 100 µM and a TGI [30] of over 100 µM. The TGI [32] was over 100 µM, the TGI [33] was over 100 µM and the TGI [58] was over 100 µM. For the same compound, the TGI [59] was over 100 µM, the TGI [60] was over 100 µM and the TGI [34] was over 100 µM. It also gave a TGI [61] of over 100 µM, a TGI [35] of over 100 µM and a TGI [62] of over 100 µM. The TGI [36] was over 100 µM, the TGI [37] was over 100 µM and the TGI [63] was over 100 µM. For the same compound, the TGI [39] was over 100 µM, the TGI [40] was over 100 µM and the TGI [42] was over 100 µM.
